# Patent US20070261950A1, “IONIZED WATER AND METHOD OF PRODUCING SAME” (priority 2006, published 2007)
# Experiments:
# [1] = test system: RAW264.7 cells; experiment: IL-1β production by peptidoglycan-stimulated RAW264.7 cells (ELISA); format: cell-based, mouse; conditions: peptidoglycan 5 μg/ml, 24 hours; 25% NIW, 75% DIW; DH-DIW; NaClO 100 ppm
# Experimental: Next, the effects of NIW generated from 0.12% NaCl solution or water containing DH (dissolved hydrogen) on proinflammatory cytokine, IL-1β, production by the RAW264.7 cells in vitro was studied. Briefly, mouse RAW264.7 cells in 96-well tissue culture plates were stimulated with 5 μg/ml of peptidoglycan (Staphylococcus aureus origin, from Sigma) in NIW-based complete medium of α-MEM (25% NIW, 75% DIW) or DIW-based α-MEM (100% DIW). Hydrogen was dissolved in DIW for two days (DH-DIW) or NaClO (100 ppm) was additionally added to DIW. All media used in this assay were supplemented with FBS (10%). After 24 hours of incubation, culture supernatants were collected from the 96-well plates and diluted in an equal volume of PBS containing 0.05% Tween 20 detergent (PBST). A commercially available ELISA kit for IL-1β was employed to measure the concentration of IL-1β in the culture supernatants.
# [2] = test system: RAW264.7 cells; experiment: Intracellular ROS induced by LPS in RAW264.7 cells (C400 fluorescence, confocal microscopy); format: cell-based, mouse; conditions: 24 hours
# Experimental: More specifically, RAW264.7 cells were incubated in 10% FBS containing α-MEM dissolved in a) 0.12% NaCl, b) 0.12% NaCl+85 ppm NaClO, or c) NIW. The cells were incubated in the presence or absence of E. coli LPS (1 μg/ml) for 24 hours. The cells were stained with Fluorescein-derivative ROS reacting reagent, 5-(and 6)-carboxy-2′,7′-dichlorodihydrofluorescein diacetate (#C400, Molecular Probes). The C400 only reacts with ROS and develops fluorescence emission at a wavelength range of 517-527 nm. The staining pattern was analyzed by 0.3 μm sequential optical sectioning at ×400 or ×1000 magnification with a Leica™ TCS/SP-2 laser scan confocal microscope.
compound,measurement,setting,value
"OCl [sodium hypochlorite (NaClO) water, sodium hypochlorite]",IL-1β production,[1],augmented the mitogenic activity of the peptidoglycan
same,LPS-dependent intracellular ROS induction,[2]; E. coli LPS 1 μg/ml,LPS treatment induced intracellular ROS
same,intracellular ROS in the absence of LPS,[2]; no LPS,did not show intracellular ROS
